The subject of test [1] is RAW264.7 cells. Description: Inhibition of release of inflammatory mediators (TNF-α) in RAW264.7 cells induced by CpG DNA. Format: cell-based. The settings on record: CpG DNA 10 μg/ml, salt 0, 50, 100, 200 μM, 4 h, ELISA, FIG. 4. The protocol: (§1) 18.1 Methods: RAW264.7 cells are diluted to 1×10^6/ml in DMEM culture medium, added into a 96-well cell culture plate (200 μl per well), and incubated at 37° C. in a 5% CO2 humidified incubator for 4 h, and then the supernatant is replaced with 200 μl of serum-free DMEM culture medium after cells attachment. Next, each well is added with CpG DNA (final concentration of 10 μg/ml ), and then added with one of the salts of kukoamine B (including kukoamine B malate, kukoamine B succinate, kukoamine B lactate, kukoamine B tartrate, kukoamine B methanesulfonate, kukoamine B p-toluenesulfonate, kukoamine B glutamate, kukoamine B acetate, kukoamine B hydrochlorate, and kukoamine B sulfate) to obtain the final concentration of 0, 50, 100, and 200 μM, respectively. The control group contains no CpG DNA. Then, the incubation goes on for 4 h. The supernatant is collected to measure the concentration of TNF-α according to the manufacturer's instructions of ELISA kit.
For orientation: ELISA stands for enzyme-linked immunosorbent assay.

Test [2] can be described thus: Affinity assay of salts of kukoamine B with lipid A (IAsys plus Affinity Sensor). It is filed as binding. The settings on record: 1 mg in 1 ml PBS (0.01 M, pH 7.4), 5 μl added to cuvette with 45 μl PBS, immobilized lipid A, 3 min; curves in FIG. 1. The procedure:
15.1 Methods: The affinity assay is carried out according to the methods disclosed in the Chinese patent titled “Use of an active ingredient or active substance selected and isolated from traditional Chinese herbs in the preparation of drugs for treating sepsis” (Chinese patent Number ZL 200510070677.3) granted to the applicant, which mainly comprises the following steps:
(1) Lipid A is immobilized on the reacting surfaces of non-derivative cuvettes according to the instructions of immobilization of lipid in the manufacturer's instructions of IAsys plus Affinity Sensor. Wherein, the end of hydrophobic side chain of lipid A was immobilized on cuvette, and the hydrophilic end is floating outside, which act as target site of binding reaction;
(2) 1 mg of each of the salts, including kukoamine B hydrochlorate, kukoamine B hydrobromide, kukoamine B sulfate, kukoamine B phosphate, kukoamine B acetate, kukoamine B maleate, kukoamine B succinate, kukoamine B malate, kukoamine B lactate, kukoamine B tartrate, kukoamine B methanesulfonate, kukoamine B p-toluenesulfonate, kukoamine B glutamate, and kukoamine B aspartate, is fully dissolved by 1 ml of PBS solution (0.01 M, pH 7.4), respectively;
(3) 5 μl of each of the solution obtained in step (2) is added into the affinity sensor's cuvettes (containing 45 μl of PBS solution) previously immobilized with lipid A to carry out the reaction, respectively;
(4) The binding reaction is carried out for 3 min, and the binding curves are recorded;
(5) Each of the cuvettes is washed with 50 μl of PBS solution for 3 times, and dissociation curves are recorded;
(6) Each of the cuvettes is washed with 0.1 M HCl solution for 3 times, and the regeneration curves are recorded.

Test [3] can be described thus: Neutralizing test on LPS in vitro (kinetic turbidimetric limulus test). Format: biochemical. The settings on record: 20 μM solution mixed with equal volume of LPS 0.25 ng/ml, 37° C. 30 min, TAL reagent; FIG. 2. The protocol:
16.1 Methods: The neutralizing test is carried out according to the manufacturer's instructions of 32 Well Kinetic Tube Reader (ATi321-06) endotoxin detector, which mainly comprises the following steps:
(1) Each of the salts, including kukoamine B hydrochlorate, kukoamine B hydrobromide, kukoamine B sulfate, kukoamine B phosphate, kukoamine B acetate, kukoamine B maleate, kukoamine B succinate, kukoamine B malate, kukoamine B lactate, kukoamine B tartrate, kukoamine B methanesulfonate, kukoamine B p-toluenesulfonate, kukoamine B glutamate, and kukoamine B aspartate, is prepared into 20 μM solution with nonpyrogenic water, respectively;
(2) 100 μl of each of the solution obtained in step (1) is separately mixed with equal volume of LPS solution (0.25 ng/ml). At the same time, the control group is established, which is a mixed solution containing 100 μl of nonpyrogenic water and equal volume of LPS solution (0.25 ng/ml). The LPS group and control group are incubated at 37° C. for 30 min. Then, 100 μl of the reaction solutions of LPS group and control group are separately added into a detector tube containing 100 μl of TAL reagents, and LPS value of each group are detected by kinetic turbidimetric limulus test according to the manufacturer's instructions of 32 Well Kinetic Tube Reader (ATi321-06) Bacterial Endotoxin Detection system. The test of each concentration is repeated three times;

Test [4] relates to RAW264.7 cells. Put plainly: Inhibition of release of inflammatory mediators (TNF-α) in RAW264.7 cells induced by LPS. It is filed as cell-based. The settings on record: LPS 100 ng/ml, salt 0, 50, 100, 200 μM, 4 h, ELISA, FIG. 3. The procedure: as §1, with “17.1” for “18.1”, “LPS” for “CpG DNA”, “100 ng/ml),” for “10 μg/ml ),”, “LPS.” for “CpG DNA.”
In a further test the test system is sepsis model of mice. Put plainly: Protective effect in the sepsis model of mice (cecal ligation and puncture, CLP). It is filed as in vivo, Balb/c mice. Particulars: 7 days; for survival rate of mice: combination with antibiotic (ampicillin sodium-sulbactam sodium 80 mg/kg), salt 2.5 mg/kg through tail vein at 0-68 hours after surgery; for protective effect to the sepsis model of mice: salt 2.5 mg/kg tail vein combined with antibiotic, FIG. 5. From the text:
19.1 Methods: 120 Balb/c mice, each of 19-21 g, half of which being male and half female, are divided into six groups randomly, including control group, antibiotic group, antibiotic and kukoamine B hydrochlorate group, antibiotic and kukoamine B methanesulfonate group, antibiotic and kukoamine B p-toluenesulfonate group, and antibiotic and kukoamine B benzene sulfonate group. Each group contains 20 mice. The mice are narcotized with anesthesia machine; the vapor concentration of isoflurane is 5%; the pressure of the mixed gas is 1 MPa; anesthesia time is about 5 min. The mice model are setup by cecal ligation and puncture (CLP) comprising the following steps: the mice are maintained in supine position, and the abdomen skin is disinfected with iodophor; the skin, muscular layer and peritoneum below the midpoint of linea alba 0.3 cm are cut open with ophthalmic scissors (the length of the incisions is 0.8 CM); the muscular layer is picked up with ophthalmic forceps, and the enterocoelia is explored with ophthalmic forceps; the cecum is pulled out and ligated with No. 4 suture at 0.5 CM from the end of cecum; then, the cecum is vertically punctured with No. 12 needle, and squeezed to extrude contents; finally, the cecum is put back and the incision is stitched. Thereafter, the mice in control group are injected with 0.2 ml of sterile saline through tail vein; the mice in antibiotic group are injected with antibiotic (ampicillin sodium-sulbactam sodium) at a dosage of 80 mg/kg body weight through tail vein at 4 hours after surgery; the mice in other four groups are separately injected with kukoamine B hydrochlorate, kukoamine B methanesulfonate, kukoamine B p-toluenesulfonate and kukoamine B benzene sulfonate at a dosage of 2.5 mg/kg body weight at a time through tail vein at 0, 4, 12, 20, 28, 36, 44, 52, 60 and 68 hours after surgery.

Structures can show the parent of a compound that is named as a salt.

For `CC(=O)O.NCCCN(CCCCNCCCNC(=O)CCc1ccc(O)c(O)c1)C(=O)CCc1ccc(O)c(O)c1` [kukoamine B acetate], the “inhibition of the release of TNF-α induced by CpG DNA” value (shortened to “inhibition … by CpG DNA”) in the test on RAW264.7 cells [1] is “can inhibit the release of TNF-α”. Besides, the “binding reaction with lipid A” value in test [2] is listed as “can bind with lipid A”. For the same compound, the “neutralization of LPS in vitro” value in test [3] is “can neutralize LPS in vitro”. Moreover, the “inhibition of the release of TNF-α induced by LPS” value (shortened to “inhibition of the release … by LPS”) with RAW264.7 cells [4] was “can inhibit the release of TNF-α”.
`NCCCN(CCCCNCCCNC(=O)CCc1ccc(O)c(O)c1)C(=O)CCc1ccc(O)c(O)c1` [kukoamine B hydrobromide]: the “binding reaction with lipid A” value in test [2] is recorded as “can bind with lipid A”. Moreover, the “neutralization of LPS in vitro” value in test [3] was “can neutralize LPS in vitro”.
For the compound `NCCCN(CCCCNCCCNC(=O)CCc1ccc(O)c(O)c1)C(=O)CCc1ccc(O)c(O)c1` [kukoamine B hydrochlorate], in the test with sepsis model of mice, the “survival rate of mice” value is on record as 20% and the “protective effect to the sepsis model of mice” value (from here on “protective effect … of mice”) is on record as “have protective effects to the sepsis model of mice”.
In the case of `CC(O)C(=O)O.NCCCN(CCCCNCCCNC(=O)CCc1ccc(O)c(O)c1)C(=O)CCc1ccc(O)c(O)c1` [kukoamine B lactate], the “inhibition … by CpG DNA” value in the test with RAW264.7 cells [1] is listed as “can inhibit the release of TNF-α”. For the same compound, in test [2], the “binding reaction with lipid A” value is listed as “can bind with lipid A”. For the same compound, the “neutralization of LPS in vitro” value in test [3] is “can neutralize LPS in vitro”. Besides, in the test on RAW264.7 cells [4], the “inhibition of the release … by LPS” value is reported as “can inhibit the release of TNF-α”.
As for `NCCCN(CCCCNCCCNC(=O)CCc1ccc(O)c(O)c1)C(=O)CCc1ccc(O)c(O)c1` [kukoamine B malate], the “inhibition … by CpG DNA” value in the test on RAW264.7 cells [1] is “can inhibit the release of TNF-α”. For the same compound, the “inhibition of the release … by LPS” value in the test with RAW264.7 cells [4] is listed as “can inhibit the release of TNF-α”.
Consider `CS(=O)(=O)O.NCCCN(CCCCNCCCNC(=O)CCc1ccc(O)c(O)c1)C(=O)CCc1ccc(O)c(O)c1` [kukoamine B methanesulfonate], for which, in the test with RAW264.7 cells [1], the “inhibition … by CpG DNA” value is recorded as “can inhibit the release of TNF-α”. In addition, the “binding reaction with lipid A” value in test [2] is “can bind with lipid A”. Further, the “neutralization of LPS in vitro” value in test [3] is reported as “can neutralize LPS in vitro”. Further, the “inhibition of the release … by LPS” value with RAW264.7 cells [4] is “can inhibit the release of TNF-α”. In the test on sepsis model of mice, the “survival rate of mice” value was 50% and the “protective effect … of mice” value is given as “have protective effects to the sepsis model of mice”. In the test with sepsis model of mice (four salts compared), the “comparison of protective effect among the salts” value is “has the best effect”.
Turning to `Cc1ccc(S(=O)(=O)O)cc1.NCCCN(CCCCNCCCNC(=O)CCc1ccc(O)c(O)c1)C(=O)CCc1ccc(O)c(O)c1` [kukoamine B p-toluenesulfonate], in the test with RAW264.7 cells [1], the “inhibition … by CpG DNA” value is “can inhibit the release of TNF-α”. For the same compound, the “binding reaction with lipid A” value in test [2] was “can bind with lipid A”. For the same compound, in test [3], the “neutralization of LPS in vitro” value is listed as “can neutralize LPS in vitro”. For the same compound, in the test with RAW264.7 cells [4], the “inhibition of the release … by LPS” value is “can inhibit the release of TNF-α”. In the test on sepsis model of mice, the “survival rate of mice” value is given as 20% and the “protective effect … of mice” value is given as “have protective effects to the sepsis model of mice”.
Take kukoamine B benzene sulfonate: in the test on sepsis model of mice, the “survival rate of mice” value is 30% and the “protective effect … of mice” value is on record as “have protective effects to the sepsis model of mice”.

For the origin of these results see patent US20130289112A1, “SALTS OF KUKOAMINE B, PREPARATION METHOD AND USE THEREOF” (priority 2010, published 2013).
